These results are taken from US8604028B2, “Furopyridinyl-substituted 1,4-dihydropyridine derivatives and methods of use thereof” (Bayer Intellectual Property GmbH, priority 2009, dated 2013).

The term IC50 denotes the concentration that inhibits the measured activity by half.

This assay addresses N-terminally His6-tagged recombinant kinase domain of the human c-Met (amino acids 960-1390) (Homo sapiens (Human), UniProt P08581). In words: c-Met Receptor Tyrosine Kinase Homogeneous Time-Resolved Fluorescence Assay (Alternative Format). The format is biochemical. The note with it: c-Met kinase inhibition, HTRF format, ATP 10 μM. The source says: c-Met Receptor Tyrosine Kinase Homogeneous Time-Resolved Fluorescence Assay (Alternative Format):
The N-terminally His6-tagged recombinant kinase domain of the human c-Met (amino acids 960-1390), expressed in insect cells (SF21) and purified by Ni-NTA affinity chromatography and consecutive size exclusion chromatography (Superdex 200), is used. Alternatively, commercially available c-Met (Millipore) can be used. As substrate for the kinase reaction, the biotinylated poly-Glu,Tyr (4:1) copolymer (#61GT0BLC, Cis Biointernational, Marcoule, France) is used.
For the assay, 50 nL of a 100-fold concentrated solution of the test compound in DMSO is pipetted into a black low-volume 384-well microtiter plate (Greiner Bio-One, Frickenhausen, Germany). […]
The resulting mixture is incubated for 1 h at 22° C. to allow the binding of the biotinylated phosphorylated peptide to the streptavidine-XLent and the PT66-Eu-chelate. Subsequently, the amount of phosphorylated substrate is evaluated by measurement of the resonance energy transfer from the PT66-Eu-chelate to the streptavidine-XLent. Therefore, the fluorescence emissions at 620 nm and 665 nm after excitation at 350 nm are measured in an HTRF reader, e.g. Rubystar (BMG Lab-technologies, Offenburg, Germany) or Viewlux (Perkin-Elmer). […]
(In general: In TR-FRET formats the signal depends on donor and acceptor labels being close together.)

Sequence of N-terminally His6-tagged recombinant kinase domain of the human c-Met (amino acids 960-1390) (P08581 960-1390): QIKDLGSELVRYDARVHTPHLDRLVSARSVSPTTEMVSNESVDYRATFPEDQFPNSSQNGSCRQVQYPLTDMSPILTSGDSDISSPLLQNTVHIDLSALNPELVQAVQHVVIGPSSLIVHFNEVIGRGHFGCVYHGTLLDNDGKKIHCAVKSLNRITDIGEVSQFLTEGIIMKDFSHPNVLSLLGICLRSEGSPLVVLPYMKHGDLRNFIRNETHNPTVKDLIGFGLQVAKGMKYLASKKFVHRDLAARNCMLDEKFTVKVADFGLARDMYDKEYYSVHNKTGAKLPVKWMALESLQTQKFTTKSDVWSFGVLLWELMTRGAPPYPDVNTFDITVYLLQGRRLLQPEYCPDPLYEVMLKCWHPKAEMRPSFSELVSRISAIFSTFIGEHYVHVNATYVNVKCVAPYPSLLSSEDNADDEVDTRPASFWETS

On to `N#CC1=C(C(F)F)NC(C(F)F)=C(C#N)C1c1cc2c(N)nccc2o1` [Example 18], for which the concentration for half-maximal inhibition (IC50) was 1030 nM.
